Test results: publication PMC8811960, “A Novel 2-Carbon-Linked Dimeric Artemisinin With Potent Antileukemic Activity and Favorable Pharmacology” (Frontiers in Oncology, 2022)

What was measured:
ML2 = test: alamarBlue growth inhibition, ML2; format: cell-based; conditions: Homo sapiens, ML-2, ML2, 48h, mean of 2 independent assays ± SD
Protocol: (§1) Cytotoxicity was assessed using alamarBlue assays (Life Technologies, Grand Island, NY) following manufacturer’s guidelines. Cell death was verified by Annexin V/7-aminoactinomycin D (7AAD) staining (BioLegend, San Diego, CA) per manufacturer’s guidelines.

U937 = test: alamarBlue growth inhibition, U937; format: cell-based; conditions: Homo sapiens, U-937, U937, 48h, mean of 2 independent assays ± SD
Protocol: as §1

[1] = Stability in mouse plasma (EDTA); format: in vitro ADME; conditions: 10 µM, 37°C, 1h
Protocol: (§2) The metabolic stability of ART631 was assessed in human and mouse plasma and liver microsomes (LM). For phase I microsomal stability assays, analogs (10 µM in <1% acetonitrile) were incubated in PBS containing liver microsomes, with or without cofactors ([22]). Microsomal controls (without cofactors) were used to determine non-enzymatic degradation. All experiments were incubated at 37°C for 1h and performed in duplicate. Reactions were stopped with acetonitrile and analyzed as described below.
(§3) ART631 was extracted from 25 µL plasma or microsomal solutions with 100 µL acetonitrile containing artemisinin (i.e. the natural product) as internal standard. […] Mobile phase A was ammonium acetate (2mM) containing 0.1% formic acid, and mobile phase B was acetonitrile containing 0.1% formic acid. The gradient started with mobile phase B and was held at 40% for 0.5 minutes with a flow rate of 0.4 mL/min, then increased to 100% over 1.5 minutes and held for 2.0 minutes, and finally returned back to 40% mobile phase B and allowed to equilibrate for 2.0 minutes. An AB Sciex 5500 triple quadrupole mass spectrometer operated in positive electrospray ionization mode was used for the detection of ART631. For stability studies, the ratio of ART631 to the internal standard, artemisinin, was assessed. […]

[2] = Stability in human plasma (EDTA); format: in vitro ADME; conditions: 10 µM, 37°C, 1h
Protocol: as §2, §3

[3] = Phase I microsomal stability, human liver microsomes; format: in vitro ADME
Protocol: as §2
ART631 was extracted from 25 µL plasma or microsomal solutions with 100 µL acetonitrile containing artemisinin (i.e. the natural product) as internal standard. […] Mobile phase A was ammonium acetate (2mM) containing 0.1% formic acid, and mobile phase B was acetonitrile containing 0.1% formic acid. The gradient started with mobile phase B and was held at 40% for 0.5 minutes with a flow rate of 0.4 mL/min, then increased to 100% over 1.5 minutes and held for 2.0 minutes, and finally returned back to 40% mobile phase B and allowed to equilibrate for 2.0 minutes. An AB Sciex 5500 triple quadrupole mass spectrometer operated in positive electrospray ionization mode was used for the detection of ART631. For stability studies, the ratio of ART631 to the internal standard, artemisinin, was assessed. Calibration curves for ART631 were computed using the ratio of the peak area to that of the internal standard by using a quadratic equation with a 1/x^2 weighting function over the range of 8-1585 nM with dilutions of up to 1:10 (v/v).

Stability in plasma = format: in vitro ADME, human and mouse; conditions: species not given
Protocol: as §2
We compared the in vitro stability of ART576 and ART631 ( Table 3 ). ART576 was stable in plasma (<10% degradation), but unstable with degradation of >70% in human liver microsomes with co-factors and >90% in mouse liver microsomes with co-factors ( Table 3 ).

[4] = Maximum tolerated dose in NRG mice; format: in vivo
Protocol: Mice were dosed orally with ART631 at empirically determined maximally tolerated doses (MTDs) of 75 mg/kg ART631 as a single dose alone or 15 mg/kg as a multiple dose regimen (once daily x5), either alone or in combination with SOR (30 mg/kg/d) and VEN (150 mg/kg/d), for side-by-side comparison to the ART838, SOR and VEN combination evaluated previously ([20]). ART631, SOR, and VEN were mixed in vehicle and given as a single administration. Mice (n = 3/time point) were euthanized at 0.5, 1, 1.5, 2, 3, 4, 6, 8 and 12 h after dosing. ART631 was quantified in plasma as described below. Pharmacokinetic parameters were calculated from mean concentration-time data using non-compartmental methods in Phoenix WinNonlin version 8.3 (Certara, Princeton, NJ). The maximum plasma concentration (Cmax) and time to Cmax (Tmax) were the observed values. The AUClast was calculated using the log-linear trapezoidal method. AUC was extrapolated to infinity (AUCINF) by dividing the last quantifiable concentration by the terminal disposition rate constant (λz). The λz was determined from at least 3 points on the slope of the terminal phase of the concentration-time profile. The terminal half-life (T1/2) was determined by dividing 0.693 by λz. Apparent clearance (Cl/F) was calculated by dividing the dose administered by AUCINF. Apparent volume of distribution (V/F) was calculated by dividing Cl/F by λz. If the percent AUC extrapolated was >20% or the r^2 of λz was <0.85, the AUCINF, Cl/F, T1/2 and V/F were not reported.
In pilot experiments, the MTD of ART631 was determined, in NRG (host strain for our AML xenograft models) mice, to be 75 mg/kg PO (gavage) for a single dose, or 15 mg/kg/d PO x5d every 14 days. When ART631 was combined with 150 mg/kg/d VEN and/or 30 mg/kg/d SOR, as was done previously with ART838 ([20]), ART631 was tolerated at the multiple dose MTD, and no further dose adjustments were made. The PK of ART631 was assessed at the MTD.

MCL1 = test: Western blot for MCL1; format: cell-based, human; conditions: MOLM14, 200 nM, 18h, similar results in MV4;11 and ML2
Protocol: Cells were pre-treated with […] ROS detection reagent 5-(and 6-)-chloromethyl-2’,7’-dichlorodihydrofluorescein diacetate (CM-H2DCFDA, Life Technologies) for 30 min, followed by the iron chelator deferoxamine mesylate (DFO; 11 mM) for 60 min. Cells were then treated with ART631 (200 nM) or DMSO control for 18h, with subsequent analysis by flow cytometry. Western blotting and quantitative reverse transcription PCR (qRT-PCR) to assess for molecular markers of ROS-mediated apoptosis were performed as previously described ([20]).
Figure 4 ART631 elevated ROS and CHOP levels and reduced MCL1 expression in MOLM14 AML cells. (A) MOLM14 AML cells were pre-treated with ROS detection reagent CM-H2DCFDA ([…]) for 30 min, pre-treated with deferoxamine mesylate (DFO; 11 mM) for 60 min, and then treated with ART631 (200 nM) or DMSO control for 18h. They were then analyzed by flow cytometry. Graph represents %CM-H2DCFDA fluorescence compared to vehicle (DMSO) control treated cells. Error bars represent SD from 3 independent experiments. (B) MOLM14 AML cells were treated for 18h with vehicle, AS (10 uM), ART838 (200 nM), ART631 (200 nM), cytarabine (AraC; 150 nM), or SOR (5 uM). Protein was isolated and western blotted for MCL1, BCL2, CHOP, and β-actin. (C) MOLM14 cells were treated as in (B) for 18h, total RNA isolated, cDNA synthesized, and SYBR Green qRT-PCR performed in triplicates. […]

Q: Which results are given for `C=CCO/N=C(/C[C@H]1O[C@@H]2O[C@@]3(C)CC[C@H]4[C@H](C)CC[C@@H]([C@H]1C)[C@@]24OO3)[C@H]1O[C@@H]2O[C@@]3(C)CC[C@H]4[C@H](C)CC[C@@H]([C@H]1C)[C@@]24OO3` [ART631]?
A: IC50 (ML2): 0.034 ± 0.004 µM; IC50 (U937): 0.02 ± 0.005 µM; percentage remaining, Plasma (EDTA) Mouse [1]: 62%; percentage remaining, Plasma (EDTA) Human [2]: 60%; percentage remaining, Phase I Metabolism HLM NADPH(+) ([3]; 10 µM, 37°C, 1h, with cofactors): 60%; percentage remaining, Phase I Metabolism HLM NADPH(-) ([3]; 10 µM, 37°C, 1h, without cofactors): 86%; degradation in human liver microsomes with co-factors ([3]; NADPH-dependent phase I metabolism): ~ 30%; degradation in plasma (Stability in plasma): > 40%; tolerability when combined with VEN and/or SOR ([4]; ART631 at multiple dose MTD with 150 mg/kg/d VEN and/or 30 mg/kg/d SOR): tolerated; MTD ([4]; mouse, in vivo, NRG mice, PO (gavage), single dose): 75 mg/kg; MTD at 5 d ([4]; mouse, in vivo, NRG mice, PO x5d every 14 days, read-out: MTD, multiple dose): 15 mg/kg/day; MCL1 protein expression (MCL1): decreased
